pIC50: −log10 of the molar value.

The test system of one test is MDA-MB-231. Nature of the test: Chemosensitization, XTT cell proliferation assay. The following applies: Homo sapiens; drug alone on untransfected MDA-MB-231 cells. Format: cell-based. Here is the method: (§1) This example summarizes part of the in vitro p53-mediated chemosensitization experiments (XTT assays) performed on the cell lines for which transfection with transferrin-coupled or folate-coupled liposomes is described in Example 17. […] The chemosensitization effect is dependent upon the liposome used and the p53 DNA dose. VIN=vinblastine; DXR=doxorubicin; CDDP=cisplatin. Fold Sensitization is calculated from the individual IC50 values. DNA dose=ug of DNA applied per well (approximately 1×10^4 cells/well in a 96-well plate).
For orientation: Tetrazolium assays rely on reduction of a dye to a coloured formazan, in cell work by metabolically active cells.

The next test relates to U87. Kind of test: Chemosensitization, XTT cell proliferation assay. Type of test: cell-based. The following applies: Homo sapiens, U-87 MG, drug alone on untransfected U87 cells. How it is done:
as §1
(§2) The ability of the LipF(B)-delivered AS-HER-2 to sensitize MDA-MB-435, JSQ-3, DU145 and U87 (Human glioblastoma) cells to chemotherapeutic agents was evaluated. Sensitivity was determined using the XTT cell proliferation assay. […] Comparison of the cells treated with LipF(B) mediated AS-HER-2, to that of cells treated with a LipF(B) control oligonucleotide (SC) indicated a greater than 30 fold increase in sensitization of 435 cells to taxotere. In contrast, only a 2.5 fold level of sensitization was evident after transfection with AS-HER-2 using the commercial Lipofectin (Life Technologies, Inc.). Treatment of JSQ-3 cells with LipF(E)-AS-HER-2 increased the effect of docetaxel almost 25 fold. […] A two fold increase in sensitization of DU145 cells to docetaxel was seen after treatment with LipF(E)-AS-HER-2.

The next test concerns PANC-1. Kind of test: Chemosensitization, XTT cell proliferation assay. Format: cell-based. The following applies: Homo sapiens, PANC-1, drug alone on untransfected PANC-1 cells. How it is done:
as §1
Here also a greater than 70 fold increase in drug sensitivity was induced by treatment with LipF(B)-AS-RAS.

In the next test the test system is PANC-1 xenograft tumors. Nature of the test: Systemic LipF-p53 plus chemotherapy, xenograft growth. Type of test: in vivo, athymic nude mice. The following applies: single agent only. An excerpt:
Xenograft tumors of pancreatic cancer cell line PANC-1 were induced by the subcutaneous inoculation of greater than 1×10^7 cells onto athymic nude mice. When the tumors reached approximately 500-1000 mm^3, the tumors were excised and minced into small (<1 mm) pieces. These freshly prepared tumor pieces (suspended in PBS) were inoculated subcutaneously (using a 14 g needle) onto the flanks of athymic nude mice. When the tumors reached an average of 100 mm^3 in volume, treatment was begun. The animals received, via intravenous injection, LipF(B)-p53. This liposome complex was administered twice/week to a total of 7 injections. The chemotherapeutic agent gemcitabine was also administered intraperitoneally at a dose of either 60mg/kg or 120mg/kg twice weekly. A total of 13 gemcitabine injections were administered. One group of animals also received twice weekly intratumoral injections of LipF(B)-p53 (a total 6) in addition to the intravenous administration of the LipF(B)-p53 and gemcitabine. […] This was particularly evident in the group that received both i.v. and i.t injections.

The subject of a further test is JSQ-3. Nature of the test: Chemosensitization, XTT cell proliferation assay. Format: cell-based. The following applies: Homo sapiens, drug alone on untransfected JSQ-3 cells. Here is the method: In addition to radiation, chemotherapy is becoming more commonly used in the treatment of SCCHN. As lack of functional wtp53 has been associated with failure to respond to chemotherapy, in this example we examined the effect of ligand-facilitated liposome mediated wtp53 gene therapy on sensitization of SCCHN cell line JSQ-3 to chemotherapeutic agents. 1×10^4 cells were plated/well of a 96-well plate. 24 hours later, the cells were transfected with LipT(A)-p53. Two days after transfection, anti-neoplastic agents were added at increasing concentrations (in triplicate). 4-6 days later the XTT cell proliferation assay was performed and IC50 values, the drug concentration yielding 50% growth inhibition, calculated.
This example summarizes part of the in vitro p53-mediated chemosensitization experiments (XTT assays) performed on the cell lines for which transfection with transferrin-coupled or folate-coupled liposomes is described in Example 17. […] The chemosensitization effect is dependent upon the liposome used and the p53 DNA dose. VIN=vinblastine; DXR=doxorubicin; CDDP=cisplatin. Fold Sensitization is calculated from the individual IC50 values. […]
The ability of the LipF(B)-delivered AS-HER-2 to sensitize MDA-MB-435, JSQ-3, DU145 and U87 (Human glioblastoma) cells to chemotherapeutic agents was evaluated. Sensitivity was determined using the XTT cell proliferation assay. […]

Another test relates to DU145. Kind of test: Chemosensitization, XTT cell proliferation assay. The note with it: Homo sapiens, DU-145, drug alone on untransfected DU145 cells. Type of test: cell-based. Here is the method:
as §1, §2

Test [1] has as its system MDA-MB-435 mammary fat pad xenograft tumors. Kind of test: Chemosensitization of xenograft tumors in vivo. Also noted: species or system athymic nude mice. The note with it: AS-HER-2 only or docetaxel only. Here is the method: Mice bearing subcutaneous mammary fat pad MDA-MB-435 tumors of approximately 100 mm^3 were i.v. injected via the tail vein with LipF(C)-p53 every 3-4 days for a total of eight injections. Doxorubicin (Dxr) (10 mg/kg) was injected i.v. weekly for 4 weeks. […] In a second experiment, two separate liposome compositions [LipF(E) and LipF(C)] were employed.
The ability of the LipF(B)-AS-HER-2 to target and sensitize preexisting MDA-MB-435 xenograft tumors to the chemotherapeutic agent docetaxel in vivo was examined by assessing tumor regression as well as tumor growth inhibition. Female athymic (Ncr nu/nu) mice carrying MDA-MB-435 mammary fat pad xenograft tumors of approximately 70 mm^3 were intravenously injected, via the tail vein, with LipF(B)-AS-HER-2 (at approximately 0.6 mM of oligonucleotides) every other day to a total of 11 injections. A total of 11 intravenous doses of docetaxel (approximately 20 mg/kg/dose every other day) were also administered to the animals. […] Therefore, the systemically delivered, targeted liposome delivery of antisense oligonucleotides, in this case AS-HER-2, was clearly able to sensitize these tumors to the chemotherapeutic agent, strongly inhibiting tumor growth almost three weeks after the end of treatment.

For another test, the system named is DU145 xenograft tumors. Kind of test: Systemic LipF-p53 plus chemotherapy, xenograft growth. The note with it: complex twice/week, 5 injections, or docetaxel 10 mg/kg, alone. Format: in vivo, mice. How it is done:
Mice bearing subcutaneous DU145 xenograft tumors of approximately 100 mm^3 were injected, via the tail vein, with a ligand-liposome p53 complex using folate as the targeting ligand (LipF(B)-p53). This liposome complex was administered twice/week (to a total of 5 injections) along with the chemotherapeutic agent docetaxel at a dose of 10 mg/kg.

Broadly, the pIC50 is the negative decadic logarithm of the IC50, by convention in mol/L. On to `COc1cccc2c1C(=O)c1c(O)c3c(c(O)c1C2=O)C[C@@](O)(C(=O)CO)C[C@@H]3O[C@H]1C[C@H](N)[C@H](O)[C@H](C)O1` [DXR, doxorubicin], for which, in the test on MDA-MB-231, the pIC50 was 6.57.

As to `Nc1ccn([C@@H]2O[C@H](CO)[C@@H](O)C2(F)F)c(=O)n1` [Gemzar, gemcitabine], the pIC50 in the test with U87 is 5.89; in the test on PANC-1, 6.10. For the same compound, the “Outcome of control groups (single treatments)” value in the test with PANC-1 xenograft tumors is listed as “euthanized due to tumor burden by day 54”.

`CC(=O)O[C@H]1C(=O)[C@@]2(C)[C@H]([C@H](OC(=O)c3ccccc3)[C@]3(O)C[C@H](OC(=O)[C@H](O)[C@@H](NC(=O)c4ccccc4)c4ccccc4)C(C)=C1C3(C)C)[C@]1(OC(C)=O)CO[C@@H]1C[C@@H]2O` [Taxol]: the pIC50 was 7.80 in the test with JSQ-3, 7.88 with DU145 and 7.28 in the test with MDA-MB-231.

Turning to `CC(=O)O[C@@]12CO[C@@H]1C[C@H](O)[C@@]1(C)C(=O)[C@H](O)C3=C(C)[C@@H](OC(=O)[C@H](O)[C@@H](NC(=O)OC(C)(C)C)c4ccccc4)C[C@@](O)([C@@H](OC(=O)c4ccccc4)[C@H]21)C3(C)C` [Taxotere, docetaxel], the pIC50 with DU145 is 7.38; in the test with PANC-1 it was 7.94. Further, the “Tumor growth, single treatment” value in test [1] is on record as “some docetaxel effect”; in the test with DU145 xenograft tumors, “neither the LipF(B)-p53 complex alone, nor docetaxel alone had any substantial effect on tumor growth”.

With `CC[C@]1(O)C[C@@H]2CN(CCc3c([nH]c4ccccc34)[C@@](C(=O)OC)(c3cc4c(cc3OC)N(C)[C@H]3[C@@](O)(C(=O)OC)[C@H](OC(C)=O)[C@]5(CC)C=CCN6CC[C@]43[C@@H]65)C2)C1` [Vln, vinblastine], the pIC50 in the test with MDA-MB-231 is 8.74.

Source of the values: patent publication US6749863B1, “Targeted liposome gene delivery” (Georgetown University, priority 1997, dated 2004).
